Data taken from ChEMBL document CHEMBL4330117, “Synthesis, biological evaluation and molecular docking of benzimidazole grafted benzsulfamide-containing pyrazole ring derivatives as novel tubulin polymerization inhibitors” (Bioorg Med Chem, 2019).
Active and inactive are the calls of the source. The rule behind the calls is not given here.

Legend:
[1] = test system: A549; experiment: Cell cycle arrest in human A549 cells assessed as accumulation at G1 phase at 0.3 uM after 24 hrs by propidium iodide/RNase A staining-based flow cytometric analysis (reference value: 71.02%); type: functional
[2] = test system: A549; experiment: Induction of apoptosis in human A549 cells assessed as downregulation of Bcl2 level up to 0.5 uM after 24 hrs by Western blot analysis; type: functional, cell-based
[3] = test system: A549; experiment: Cell cycle arrest in human A549 cells assessed as accumulation at G2/M phase at 0.1 uM after 24 hrs by propidium iodide/RNase A staining-based flow cytometric analysis (reference value: 17.62%); type: functional
[4] = test system: A549; experiment: Cell cycle arrest in human A549 cells assessed as accumulation at S phase at 0.3 uM after 24 hrs by propidium iodide/RNase A staining-based flow cytometric analysis (reference value: 11.36%); type: functional
[5] = test system: Rattus norvegicus; experiment: Antitumor activity against rat hepatoma H22 cells implanted in mouse assessed as reduction in tumor volume at 3 mg/kg, ip measured after 8 to 28 days; type: functional, organism-based
[6] = test system: A549; experiment: Cell cycle arrest in human A549 cells assessed as accumulation at S phase at 0.5 uM after 24 hrs by propidium iodide/RNase A staining-based flow cytometric analysis (reference value: 11.36%); type: functional
[7] = test system: A549; experiment: Induction of apoptosis in human A549 cells assessed as upregulation of cleaved PARP level up to 0.5 uM after 24 hrs by Western blot analysis; type: functional, cell-based
[8] = test system: A549; experiment: Induction of apoptosis in human A549 cells assessed as late apoptotic cells at 0.3 uM after 24 hrs by Annexin V-FITC/propidium iodide staining-based flow cytometric analysis (reference value: 3.55%); type: functional
[9] = test system: A549; experiment: Induction of apoptosis in human A549 cells assessed as necrotic cells at 0.3 uM after 24 hrs by Annexin V-FITC/propidium iodide staining-based flow cytometric analysis (reference value: 10.8%); type: functional
[10] = test system: A549; experiment: Induction of apoptosis in human A549 cells assessed as upregulation of Bax level up to 0.5 uM after 24 hrs by Western blot analysis; type: functional, cell-based
[11] = test system: A549; experiment: Induction of apoptosis in human A549 cells assessed as necrotic cells at 0.5 uM after 24 hrs by Annexin V-FITC/propidium iodide staining-based flow cytometric analysis (reference value: 10.8%); type: functional
[12] = test system: A549; experiment: Induction of apoptosis in human A549 cells assessed as upregulation of cleaved caspase-3 level up to 0.5 uM after 24 hrs by Western blot analysis; type: functional, cell-based
[13] = test system: A549; experiment: Induction of apoptosis in human A549 cells assessed as late apoptotic cells at 0.5 uM after 24 hrs by Annexin V-FITC/propidium iodide staining-based flow cytometric analysis (reference value: 3.55%); type: functional
[14] = target: T1, Tubulin (Homo sapiens) (UniProt P68371+Q9H4B7+P0DPH7+P68366+Q13509+Q71U36+P04350+Q3ZCM7+P07437+P68363+Q9BQE3+Q6PEY2+Q13885+Q9BVA1+Q9BUF5); experiment: Induction of microtubule disruption in human A549 cells assessed as cell contraction at 0.2 uM after 24 hrs by rhodamine and DAPI staining based immunofluorescence microscopic analysis
[15] = test system: A549; experiment: Antiproliferative activity against human A549 cells after 24 hrs by MTT assay; type: functional, cell-based; details: A549, 24 h
[16] = test system: A549; experiment: Cell cycle arrest in human A549 cells assessed as accumulation at G1 phase at 0.1 uM after 24 hrs by propidium iodide/RNase A staining-based flow cytometric analysis (reference value: 71.02%); type: functional
[17] = test system: HeLa; experiment: Antiproliferative activity against human HeLa cells after 24 hrs by MTT assay; type: functional, cell-based
[18] = test system: MCF7; experiment: Antiproliferative activity against human MCF7 cells after 24 hrs by MTT assay; type: functional, cell-based; details: MCF7, 24 h
[19] = test system: A549; experiment: Cell cycle arrest in human A549 cells assessed as downregulation of Cdc2 expression level after 24 hrs by Western blot analysis; type: functional, cell-based
[20] = target: T2, Tubulin (Bos taurus) (UniProt Q6B856+Q862L2+Q862F3); experiment: Inhibition of vinblastine binding to bovine brain tubulin at 5 uM
[21] = test system: A549; experiment: Induction of apoptosis in human A549 cells assessed as viable cells at 0.1 uM after 24 hrs by Annexin V-FITC/propidium iodide staining-based flow cytometric analysis (reference value: 82.8%); type: functional; details: A549, 24 h, read-out: Activity
[22] = test system: A549; experiment: Cell cycle arrest in human A549 cells assessed as upregulation of cyclin B1 expression level after 24 hrs by Western blot analysis; type: functional, cell-based
[23] = test system: A549; experiment: Induction of apoptosis in human A549 cells assessed as early apoptotic cells at 0.3 uM after 24 hrs by Annexin V-FITC/propidium iodide staining-based flow cytometric analysis (reference value: 2.81%); type: functional
[24] = Cytotoxicity against mouse primary hepatocytes after 24 hrs by MTT assay; type: cell-based, Hepatocyte
[25] = Toxicity in mouse xenografted with rat H22 cells assessed as weight loss at 3 mg/kg, ip measured after 28 days; type: organism-based; details: in vivo, 672 h
[26] = target: T1, Tubulin (Homo sapiens); experiment: Induction of microtubule disruption in human A549 cells assessed as cell rounding at 0.2 uM after 24 hrs by rhodamine and DAPI staining based immunofluorescence microscopic analysis
[27] = test system: A549; experiment: Cell cycle arrest in human A549 cells assessed as accumulation at S phase at 0.1 uM after 24 hrs by propidium iodide/RNase A staining-based flow cytometric analysis (reference value: 11.36%); type: functional
[28] = test system: A549; experiment: Cell cycle arrest in human A549 cells assessed as accumulation at G2/M phase at 0.3 uM after 24 hrs by propidium iodide/RNase A staining-based flow cytometric analysis (reference value: 17.62%); type: functional
[29] = test system: A549; experiment: Induction of apoptosis in human A549 cells assessed as viable cells at 0.3 uM after 24 hrs by Annexin V-FITC/propidium iodide staining-based flow cytometric analysis (reference value: 82.8%); type: functional; details: A549, 24 h, read-out: Activity
[30] = test system: A549; experiment: Induction of microtubule disruption in human A549 cells assessed as spindle microtubule disorganization accompanied by misaligned chromosomes from metaphase plate at 0.5 uM after 24 hrs by rhodamine and DAPI staining based immunofluorescence microscopic analysis; type: functional, cell-based
[31] = test system: A549; experiment: Induction of apoptosis in human A549 cells assessed as early apoptotic cells at 0.1 uM after 24 hrs by Annexin V-FITC/propidium iodide staining-based flow cytometric analysis (reference value: 2.81%); type: functional
[32] = Cytotoxicity against HEK293T cells after 24 hrs by MTT assay; type: cell-based, HEK-293T; details: human
[33] = test system: A549; experiment: Cell cycle arrest in human A549 cells assessed as upregulation of p21 expression level after 24 hrs by Western blot analysis; type: functional, cell-based
[34] = test system: A549; experiment: Cell cycle arrest in human A549 cells assessed as accumulation at G1 phase at 0.5 uM after 24 hrs by propidium iodide/RNase A staining-based flow cytometric analysis (reference value: 71.02%); type: functional
[35] = test system: A549; experiment: Induction of apoptosis in human A549 cells assessed as early apoptotic cells at 0.5 uM after 24 hrs by Annexin V-FITC/propidium iodide staining-based flow cytometric analysis (reference value: 2.81%); type: functional
[36] = test system: A549; experiment: Induction of apoptosis in human A549 cells assessed as necrotic cells at 0.1 uM after 24 hrs by Annexin V-FITC/propidium iodide staining-based flow cytometric analysis (reference value: 10.8%); type: functional
[37] = test system: A549; experiment: Induction of apoptosis in human A549 cells assessed as viable cells at 0.5 uM after 24 hrs by Annexin V-FITC/propidium iodide staining-based flow cytometric analysis (reference value: 82.8%); type: functional; details: A549, 24 h, read-out: Activity
[38] = test system: A549; experiment: Cell cycle arrest in human A549 cells assessed as downregulation of cdc25c expression level after 24 hrs by Western blot analysis; type: functional, cell-based
[39] = target: T2, Tubulin (Bos taurus); experiment: Inhibition of [3H]colchicine binding to bovine brain tubulin at 5 uM
[40] = test system: HepG2; experiment: Antiproliferative activity against human HepG2 cells after 24 hrs by MTT assay; type: functional, cell-based; details: HepG2, 24 h
[41] = test system: A549; experiment: Cell cycle arrest in human A549 cells assessed as accumulation at G2/M phase after 24 hrs by propidium iodide/RNase A staining-based flow cytometric analysis; type: functional
[42] = test system: A549; experiment: Induction of apoptosis in human A549 cells assessed as late apoptotic cells at 0.1 uM after 24 hrs by Annexin V-FITC/propidium iodide staining-based flow cytometric analysis (reference value: 3.55%); type: functional
[43] = test system: A549; experiment: Cell cycle arrest in human A549 cells assessed as accumulation at G2/M phase at 0.5 uM after 24 hrs by propidium iodide/RNase A staining-based flow cytometric analysis (reference value: 17.62%); type: functional

## Cc1ccc(C)c(S(=O)(=O)n2c(-c3cn(-c4ccccc4)nc3-c3ccc(C(F)(F)F)cc3)nc3ccccc32)c1
[1]
  Activity: 53.31%
[2]
  Activity: Active
[3]
  Activity: 22.63%
[4]
  Activity: 18.56%
[5]
  Activity: Active
[6]
  Activity: 12.11%
[7]
  Activity: Active
[8]
  Activity: 5.95%
[9]
  Activity: 16.3%
[10]
  Activity: Active
[11]
  Activity: 18.2%
[12]
  Activity: Active
[13]
  Activity: 8.74%
[14]
  Activity: Active
[15]
  IC50: 0.15 µM
[16]
  Activity: 62.95%
[17]
  IC50: 0.21 µM
[18]
  IC50: 0.17 µM
[19]
  Activity: Dose-dependent effect
[20]
  inhibition: 0.06%
[21]
  viability at 0.1 µM: 78.6%
[22]
  Activity: Dose-dependent effect
[23]
  Activity: 6.69%
[24]
  CC50 at 24 h: 132 µM
[25]
  Activity: Non-Toxic
[26]
  Activity: Active
[27]
  Activity: 14.42%
[28]
  Activity: 28.13%
[29]
  viability at 0.3 µM: 71%
[30]
  Activity: Active
[31]
  Activity: 3.08%
[32]
  CC50 at 24 h: 223 µM
[33]
  Activity: Dose-dependent effect
[34]
  Activity: 47.63%
[35]
  Activity: 10.1%
[36]
  Activity: 13.4%
[37]
  viability at 0.5 µM: 62.9%
[38]
  Activity: Dose-dependent effect
[39]
  inhibition: 91%
[40]
  IC50: 0.33 µM
[41]
  Activity: Dose-dependent effect
[42]
  Activity: 4.9%
[43]
  Activity: 40.26%
